Usually Emax stands for the size of the effect at its maximum, as opposed to the concentration needed.

These results are taken from patent US7880007B2, “Bicyclic substituted phenyl piperidine modulators of muscarinic receptors” (Vertex Pharmaceuticals Incorporated, priority 2004, dated 2011).

Format in all cases: cell-based
One assay has as its target T1, M1 muscarinic receptor (Homo sapiens, UniProt P11229).
T1 construct: expressed in transfected cells; host or cells: CHO (M1-CHO)
T1 sequence (P11229 1-460): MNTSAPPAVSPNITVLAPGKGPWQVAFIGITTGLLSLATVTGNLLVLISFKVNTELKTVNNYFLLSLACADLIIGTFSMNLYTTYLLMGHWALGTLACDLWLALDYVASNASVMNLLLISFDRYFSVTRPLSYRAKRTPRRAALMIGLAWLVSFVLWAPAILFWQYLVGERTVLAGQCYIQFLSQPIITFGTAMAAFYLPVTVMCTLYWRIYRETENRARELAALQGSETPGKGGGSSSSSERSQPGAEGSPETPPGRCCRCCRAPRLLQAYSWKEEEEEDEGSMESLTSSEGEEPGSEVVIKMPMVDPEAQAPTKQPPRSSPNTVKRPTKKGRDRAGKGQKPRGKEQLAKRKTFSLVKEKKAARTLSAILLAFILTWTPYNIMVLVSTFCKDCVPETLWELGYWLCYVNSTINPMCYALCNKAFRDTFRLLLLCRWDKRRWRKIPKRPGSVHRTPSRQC
The experiment in a line: Functional mobilization of intracellular calcium (FLIPR), M1-CHO cells. As to conditions: for Emax: 100% efficacy = maximum response obtained with the Carbachol control; for M1 Activity: M1-CHO cells, calcium mobilization (FLIPR). The method, boiled down: (§1)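 FLIPR fluorescence (ex 488, em 540 nm) recorded 60 sec after compound addition to dye-loaded CHO cells. Agonist mode: compound alone. Antagonist mode: 15 min compound pre-incubation, then carbachol at EC80, or co-application. Efficacy expressed as % of maximal carbachol response.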

Another assay has as its target T2, M2 muscarinic receptor (Homo sapiens, UniProt P08172).
T2 construct: expressed in transfected cells; host or cells: CHO (M2-CHO)
T2 sequence (P08172 1-466): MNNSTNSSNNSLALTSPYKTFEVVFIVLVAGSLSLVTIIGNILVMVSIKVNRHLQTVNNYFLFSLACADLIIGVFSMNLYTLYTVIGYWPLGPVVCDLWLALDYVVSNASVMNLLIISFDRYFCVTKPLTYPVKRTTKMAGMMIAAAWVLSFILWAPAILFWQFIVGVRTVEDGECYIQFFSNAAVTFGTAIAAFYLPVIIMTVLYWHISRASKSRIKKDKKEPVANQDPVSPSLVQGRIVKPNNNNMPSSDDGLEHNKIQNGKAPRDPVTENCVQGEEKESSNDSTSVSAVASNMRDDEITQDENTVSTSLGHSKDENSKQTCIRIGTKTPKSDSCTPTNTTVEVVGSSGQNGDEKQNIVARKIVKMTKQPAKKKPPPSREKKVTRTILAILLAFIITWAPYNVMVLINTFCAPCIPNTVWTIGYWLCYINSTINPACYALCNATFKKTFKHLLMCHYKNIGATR
The experiment in a line: Functional mobilization of intracellular calcium (FLIPR), M2-CHO cells. Conditions: for Emax: 100% efficacy = maximum response obtained with the Carbachol control; for M2 Activity: M2-CHO cells, calcium mobilization (FLIPR). In short, it runs like this: as §1
On the technique in general: A change in cytosolic calcium serves as a functional read-out for many receptors and channels.

Another assay deals with T3, M3 muscarinic receptor (Homo sapiens, UniProt P20309).
T3 construct: expressed in transfected cells; host or cells: CHO (M3-CHO)
Briefly: Functional mobilization of intracellular calcium (FLIPR), M3-CHO cells. As to conditions: for Emax: 100% efficacy = maximum response obtained with the Carbachol control; for M3 Activity: M3-CHO cells, calcium mobilization (FLIPR). Here is the method: Functional Mobilization of Intracellular Calcium to Determine Muscarinic Receptor Activity:
CHO cells expressing muscarinic receptors (M1 to M5) are grown as monolayers in tissue culture flasks at 37° C. in a humidified atmosphere containing 5% CO2 and passaged every 3-5 days. The growth media is Dulbecco's modified eagles medium (DMEM, Gibco Cat #12430-054), containing 25 mM Hepes and supplemented with Fetal Bovine Serum (Hyclone, cat #SH30071.03), 0.1 mM of MEM non-essential amino acids (GIBCO, Cat #11140-050), 1 mM MEM Sodium Pyruvate (GIBCO Cat #11360-070) and 100 units/ml of Penicillin G and 100 μg/ml of Streptomycin (GIBCO Cat #15140-122). The recombinant muscarinic receptor cell lines are grown under antibiotic pressure with media containing 25 μg/ml zeocin and 500 μg/ml G418 (M1-CHO), 4 μg/ml puromycin, 50 μg/ml zeocin and 2.5 μg/ml blasticidin (M2 and M4-CHO) or 50 μg/ml zeocin and 4 μg/ml puromycin (M3 and M5-CHO).
Cells are harvested at 80-90% confluence using Versene (GIBCO Cat #15040-066), collected by centrifugation and seeded 18-24 hrs prior to running the calcium assay at a density of 5,000-10,000 cells/well in […], clear-bottomed 384-well plates (BD Biocoat, poly-D-lysine, Cat #356663). The day of the experiment, the cells are washed with a plate washer (Bioteck Instruments, ELX 405) using bath 1 buffer (140-mM NaCl, 4.5-mM KCl, 2-mM CaCl2, 1-mM MgCl2, 10-mM Hepes-Na, 10-mM Glucose, pH 7.4, with NaOH) containing 1 mM Probenecid. Next, the calcium dye Fluo-3 (25 μl/well of Fluo-3 AM at 4 μM, Molecular Probes F-1241, in Bath 1 buffer containing 1 mM Probenecid) is added to the 25 μl of Bath 1 remaining in each well after the plate wash and the dye is loaded at 37° C. in the tissue culture incubator for 60-90 min. The fluorescent dye is removed using the plate washer with Bath 1 containing 1 mM Probenecid, leaving 25 μl/well of this solution after the wash. Alternatively, cells can be loaded with the calcium indicator from Molecular Devices (Calcium 3 Assay Reagents, Cat #R7181) adding 5 μl of a 5× solution dye in Bath 1 containing 1 mM Probenecid (10 ml per dye flask cat #R7182 to generate a solution 20×) to 20 μl of the same buffer. After loading for 60 min, the experiment can be run without having to remove the dye.
Compounds are prepared at a 2× fold concentration in a 96-well plate (round bottom, Costar Corning cat #3656), by reconstituting the pre-spotted compounds in bath 1 containing 1 mM probenecid. The final concentration DMSO is 0.5%, and the amount of DMSO is normalized across the assay plate. To determine an agonist action of the compounds on muscarinic receptors, the reconstituted compounds are added (25 μl compound/well) to the cell assay plate (containing 25 μl/well) using the multi-channel robotic system of the FLIPR 3 Instrument (Molecular Devices, Sunnyvale, Calif.). To determine a functional inhibitory action of the compounds on muscarinic receptors, the reconstituted compounds are added (25 μl compound/well) to the assay plate and pre-incubated for 15 min prior to adding 25 μl of Carbachol at 3× the EC80 for each muscarinic subtype. Alternatively, the compounds can be co-applied simultaneously with the agonist. In both assay modes, the fluorescence is recorded for 60 sec (excitation wavelength is […] and emission wavelength 540 nm) using the FLIPR 3 instrument.
The potency, efficacy and selectivity of the muscarinic compounds were evaluated by screening the compound activity across the whole family (M1 to M5 cells). Compounds were also screened for activity on other proteins such as other GPCRs and ion channels to determine selectivity on M4 receptors.
Examples of activities and efficacies of the muscarinic compounds of formulae (I, Ia, Ib, and II) on modulating M1, M2, M3 and M4 receptors are shown below in Table 3. […]

The target in a further assay is T4, M4 muscarinic receptor (Homo sapiens, UniProt P08173).
T4 construct: expressed in transfected cells; host or cells: CHO (M4-CHO)
T4 sequence (P08173 1-479): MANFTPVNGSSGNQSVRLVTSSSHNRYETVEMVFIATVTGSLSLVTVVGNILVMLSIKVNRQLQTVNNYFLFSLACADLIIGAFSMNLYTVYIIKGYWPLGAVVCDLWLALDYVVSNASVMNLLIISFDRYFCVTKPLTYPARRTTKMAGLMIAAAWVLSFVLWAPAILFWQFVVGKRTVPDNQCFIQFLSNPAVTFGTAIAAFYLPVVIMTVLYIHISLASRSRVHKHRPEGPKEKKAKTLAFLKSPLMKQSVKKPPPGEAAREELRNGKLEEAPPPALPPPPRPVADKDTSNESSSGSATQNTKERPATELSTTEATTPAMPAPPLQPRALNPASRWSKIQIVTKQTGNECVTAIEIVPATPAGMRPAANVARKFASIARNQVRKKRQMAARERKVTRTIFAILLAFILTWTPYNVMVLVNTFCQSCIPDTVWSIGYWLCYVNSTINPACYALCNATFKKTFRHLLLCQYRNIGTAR
Briefly: Functional mobilization of intracellular calcium (FLIPR), M4-CHO cells. Conditions: for Emax: 100% efficacy = maximum response obtained with the Carbachol control; for M4 Activity: M4-CHO cells, calcium mobilization (FLIPR). In short, it runs like this:
as §1

T3 sequence (P20309 whole entry): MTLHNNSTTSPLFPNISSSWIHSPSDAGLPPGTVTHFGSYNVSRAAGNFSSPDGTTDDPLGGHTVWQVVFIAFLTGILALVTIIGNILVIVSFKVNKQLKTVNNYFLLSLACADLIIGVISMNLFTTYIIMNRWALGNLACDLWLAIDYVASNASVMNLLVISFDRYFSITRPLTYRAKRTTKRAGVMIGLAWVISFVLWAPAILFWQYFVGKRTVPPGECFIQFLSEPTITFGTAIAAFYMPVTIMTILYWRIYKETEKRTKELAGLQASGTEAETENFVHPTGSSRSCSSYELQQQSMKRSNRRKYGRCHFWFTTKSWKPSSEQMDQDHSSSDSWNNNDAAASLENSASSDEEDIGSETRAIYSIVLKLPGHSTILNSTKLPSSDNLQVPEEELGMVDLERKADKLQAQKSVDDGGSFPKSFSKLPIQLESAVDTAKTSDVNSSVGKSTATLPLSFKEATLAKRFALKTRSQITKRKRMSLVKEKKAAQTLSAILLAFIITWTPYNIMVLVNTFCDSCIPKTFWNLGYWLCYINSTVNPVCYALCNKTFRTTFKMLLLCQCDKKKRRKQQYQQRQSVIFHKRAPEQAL

As for `COc1cc(F)ccc1C1CCN([C@H]2C[C@H]3CC[C@H]2C3)CC1` [Compound 4], at M1 muscarinic receptor, the Emax was 25 to 100% and the “M1 Activity” value is given as “+ (activity was measured to be greater than 5.0 μM)”. For the same compound, on M2 muscarinic receptor, the Emax was less than 25% and the “M2 Activity” value is recorded as “+ (activity was measured to be greater than 5.0 μM)”. For the same compound, on M3 muscarinic receptor, the Emax is less than 25% and the “M3 Activity” value is “+ (activity was measured to be greater than 5.0 μM)”. On M4 muscarinic receptor, the Emax is 25 to 100% and the “M4 Activity” value is “+++ (activity was measured to be less than 1.0 μM)”.

Turning to `COc1ccc(F)cc1C1(F)CCN(C[C@@H]2C[C@H]3C=C[C@H]2C3)CC1` [Compound 5], at M1 muscarinic receptor, the Emax was 25 to 100% and the “M1 Activity” value was “+ (activity was measured to be greater than 5.0 μM)”. On M2 muscarinic receptor, the Emax was 25 to 100% and the “M2 Activity” value is given as “+ (activity was measured to be greater than 5.0 μM)”. Also, at M3 muscarinic receptor, the Emax is less than 25% and the “M3 Activity” value is “+ (activity was measured to be greater than 5.0 μM)”. Further, on M4 muscarinic receptor, the Emax was 25 to 100% and the “M4 Activity” value was “+++ (activity was measured to be less than 1.0 μM)”.

`COc1ccc(-c2ccc(C(N)=O)cc2)cc1C1CCN([C@H]2C[C@H]3CC[C@H]2C3)CC1` [Compound 6]: at M1 muscarinic receptor, the Emax is less than 25% and the “M1 Activity” value is given as “+ (activity was measured to be greater than 5.0 μM)”. Besides, at M2 muscarinic receptor, the Emax is less than 25% and the “M2 Activity” value is reported as “+ (activity was measured to be greater than 5.0 μM)”. Also, at M3 muscarinic receptor, the Emax is less than 25% and the “M3 Activity” value is “+ (activity was measured to be greater than 5.0 μM)”. Moreover, on M4 muscarinic receptor, the Emax was less than 25% and the “M4 Activity” value is on record as “+ (activity was measured to be greater than 5.0 μM)”.

For the compound `COc1ccc(-c2ccc(C(C)=O)cc2)cc1C1CCN([C@H]2C[C@H]3CC[C@H]2C3)CC1` [Compound 7], at M1 muscarinic receptor, the Emax was less than 25% and the “M1 Activity” value is listed as “+ (activity was measured to be greater than 5.0 μM)”. In addition, on M2 muscarinic receptor, the Emax was less than 25% and the “M2 Activity” value was “+ (activity was measured to be greater than 5.0 μM)”. For the same compound, at M3 muscarinic receptor, the Emax is less than 25% and the “M3 Activity” value is listed as “+ (activity was measured to be greater than 5.0 μM)”. Further, at M4 muscarinic receptor, the Emax was in the range of 25 to 100% and the “M4 Activity” value is recorded as “++ (activity was measured to be from 1.0 μM to 5.0 μM)”.

With `COc1ccc(-c2ccc(C(=O)N3CCOCC3)cc2)cc1C1CCN([C@H]2C[C@H]3CC[C@H]2C3)CC1` [Compound 8], at M1 muscarinic receptor, the maximum response (Emax) is less than 25% and the “M1 Activity” value is listed as “+ (activity was measured to be greater than 5.0 μM)”. For the same compound, at M2 muscarinic receptor, the Emax was less than 25% and the “M2 Activity” value is listed as “+ (activity was measured to be greater than 5.0 μM)”. In addition, at M3 muscarinic receptor, the Emax was less than 25% and the “M3 Activity” value is “+ (activity was measured to be greater than 5.0 μM)”. Also, on M4 muscarinic receptor, the Emax was less than 25% and the “M4 Activity” value was “+ (activity was measured to be greater than 5.0 μM)”.

Take `COc1ccc(Cl)cc1C1CCN(C2CCCCC2)CC1` [Compound 9]: on M1 muscarinic receptor, the Emax lay within 25 to 100% and the “M1 Activity” value is reported as “+++ (activity was measured to be less than 1.0 μM)”. In addition, at M2 muscarinic receptor, the Emax was in the range of 25 to 100% and the “M2 Activity” value is “+++ (activity was measured to be less than 1.0 μM)”. For the same compound, at M3 muscarinic receptor, the Emax is less than 25% and the “M3 Activity” value was “+ (activity was measured to be greater than 5.0 μM)”. Moreover, at M4 muscarinic receptor, the maximal response (Emax) is 25 to 100% and the “M4 Activity” value is recorded as “+++ (activity was measured to be less than 1.0 μM)”.

Turning to `CNC(=O)c1ccc(-c2ccc(OC)c(C3CCN(C4CCOCC4)CC3)c2)cc1Cl` [Compound 11], on M1 muscarinic receptor, the Emax is less than 25% and the “M1 Activity” value is on record as “+ (activity was measured to be greater than 5.0 μM)”. On M2 muscarinic receptor, the Emax is less than 25% and the “M2 Activity” value is “+ (activity was measured to be greater than 5.0 μM)”. Besides, at M3 muscarinic receptor, the Emax is less than 25% and the “M3 Activity” value was “+ (activity was measured to be greater than 5.0 μM)”. Besides, at M4 muscarinic receptor, the Emax was 25 to 100% and the “M4 Activity” value was “++ (activity was measured to be from 1.0 μM to 5.0 μM)”.
